Experimental data from patent US8563603B2, “Polycyclic compounds and methods related thereto” (Cornell University, priority 2008, dated 2013).

Legend:
cell line MD-MBA-231 = experiment: Cell cycle analysis by DNA content (hypotonic PI staining, flow cytometry); type: cell-based, human; conditions: for % events in sub G0 (apoptotic events) / effect on cell population in G2/M / effect on cell populations in S-phase, significance / singlet count: 1.2, 6.0, 30.0 ppm; for % events in sub G0 (apoptotic events) / effect on cell population in G2/M / effect on cell populations in S-phase, significance / singlet count / % of cells in S-phase: 24 h
Protocol: Twenty-four hours after exposure to compounds, 25×10^4 cells in 1.5 ml cells were simply re-suspended following either the Annexin V/FITC assay or the trypsin procedures. Cells were centrifuged at 1000-x g at room temperature and washed in 0.5 ml of hypotonic staining solution. Cells were kept a minimum of 30 min. at 4° C. in the dark. Samples were usually analyzed by flow cytometry on the same day or at 24 hrs. Resulting DNA distributions were analyzed for the proportion of cells in apoptosis and in G0/G1, S, and G2/M phases of the cell cycle. Singlet events were gated and 10,000-20,000 events were acquired within the gated region. All experiments were repeated at least three times, each in duplicate.
The cell cycle comprises steps that regulate the correct temporal sequence of events that control the growth, reproduction and differentiation of cells. The cell cycle consists of 4 phases: G0/G1, S (DNA synthesis), G2, and M (mitosis). In addition, checkpoints located in the cell cycle transition ensure that cell growth and division occur in response to appropriate signals and environment. When proliferating, if cells are subjected to DNA damage the cell cycle temporarily pauses either at G1, S or G2 phase. Arrest at these checkpoints prevents DNA replication and mitosis in the presence of unrepaired DNA damage and presumably allows time for DNA repair to occur. The proportion of cells that arrest in G1, S or G2 after damage depends on cell type, growth conditions, type of damage and the checkpoints operative in the cells. Shifts in the redistribution of phases of the cell cycle in response to various stimuli can be readily assessed by flow cytometry. DNA content analysis with the use of PI is one of the most common assays. The use of intercalating dyes to measure DNA content are the most common and are usually sufficient to determine relative shifts in the phases of the cell cycle. The hypotonic solution lyses the plasma membrane and prevents many of the aggregate problems associated with fixed cells. Propidium Iodide(PI) passes through permeabilized cell membranes and intercalates with cellular DNA. Therefore, the intensity of the PI signal is directly proportional to DNA content. DNA content experiments determine the percent induction of apoptosis and relative distribution of the cell cycle phases.
The percent of apoptotic cells (cells with fractional DNA content; sub G1 cells) were established by estimating the percentage of events showing up in sub G0. The Sub-G1 method relies on the fact that after DNA fragmentation, there are small fragments of DNA that may be eluted. However in order to be seen in the Sub G1 area, a cell must have lost enough DNA to appear there; so if cells enter apoptosis from the S or G2/M phase of the cell cycle or if there is an aneuploid population undergoing apoptosis, they may not appear in the Sub G1 peak. The number of events in sub G1 (number of nuclear fragments) provides no information on the # of cells undergoing apoptosis.

[1] = system: Human breast cancer cell line MB-MDA-231; experiment: Annexin V FITC / PI apoptosis detection by flow cytometry, 24 h; type: cell-based; conditions: 24 h; for early stage apoptosis, FITC (+)/PI (−) staining, significance: 1.2, 6.0, 30.0 ppm
Protocol: Human breast cancer cell line MB-MDA-231 were cultured in Dulbecco's Modified Eagle's medium (DMEM-Sigma, D-5648), supplemented with 10% (heat-inactivated) Fetal Bovine Serum (Atlanta Biologicals, Inc.) and Antibiotic Solution, 100× (Sigma A-9909). Cells were gown at 37° C., at 5-7% CO2, and 95% humidity and were obtained from the American Type Culture Collection (ATCC). Cells were trypsinized with 0.05% Trypsin-0.2% EDTA (w/v) solution (Invitrogen Corporation, Carlsbad, Calif.).
The induction of apoptosis in MB-MDA-231 was analyzed using a well-validated Annexin V FITC apoptosis detection kit (Calbiochem), Darzynkiewicz, 1998. The phosphatidylserine (PS)-specific dye Annexin-V is used to detect apoptotic-specific changes to the organization of phospholipids leading to exposure of PS on the cell surface that precedes nuclear breakdown, DNA fragmentation, and the appearance of most apoptosis-associated molecules. For these studies cells were seeded at 25×10^4 cells/1.5 ml in a 24 well microtiter plate. Cells were allowed to adhere to plates for 24 h, and then exposed to lignans of the present invention at 5-fold dilutions of 30 μl, 6 μl, and 1.2 μl per well for 24 h. Test compounds were mixed in solution using DMSO as vehicle (10 mg extract/1 ml DMSO). Camptothecin was used as a positive control. Following the incubation period 700 μl of suspended cells were transferred to 15 ml conical tubes. Cells that remained adhered to the 24-well plates were gently washed with PBS (137 mM NaCl, 2.7 mM KCL, 4.3 mM Na2HPO4-7H2O, 1.4 mM KH2PO4, adjusted to pH 7.4), trypsinized with 1 ml of solution (0.05% Trypsin—0.2% EDTA [w/v]), and resuspended with the suspended cells/media collected in the 15 ml conical tubes from the previous step. 10 μl of media-binding reagent and 1.25 μl Annexin V-FITC was added to the 15 ml conical tubes containing both the 700 μl of suspended cells and the resuspended cells and incubated at room temperature for 15 min, at 18-24° C., in the dark. Tubes were centrifuged for 5 minutes at 1000×g at room temperature. Media was removed and cells were gently resuspended in 0.5 ml cold 1×binding buffer (dilution; 5× Binding Buffer concentrate 1:5 with dH2O) and placed on ice. 10 μl of propidium iodide was added to each tube. Cells were placed on ice away from light and analyzed immediately by flow cytometry. The dual fluorescence emissions of the respective dyes were detected in cell preparations on a BD-Biosciences FACS Aria high-speed flow cytometer/cell sorter utilizing a quartz cuvette for interrogation. To quantify the Annexin V (FL1 at 518 nm) and propidium iodide (620 nm) signals, apoptosis-induced cells (CPT) stained with FITC only and apoptosis-induced cells (CPT) labeled with only propidium iodide were utilized. Necessary adjustments were made to minimize overlap between these two measurements. Typically, 10,000-20,000 cells were scored for each sample and classified as either viable, early apoptotic, or late apoptotic or necrotic. All experiments were repeated at least three times, each in duplicate.
The principal of the Annexin V/FITC assay is that, Annexin V, an anticoagulant protein, preferentially binds negatively charged phospholipids. Early in the apoptotic process, phospholipid asymmetry is disrupted leading to the exposure of phosphatidylserine (PS) on the outer leaflet of the cytoplasmic membrane. Annexin V binds to the negatively charged calcium-dependent PS. Conjugating FITC to Annexin V with simultaneous propidium iodide (PI) staining allows bivariate analysis of intact cells. Live, healthy cells are double negative, FITC (−)/PI (−), and are seen in the lower left quadrant [A3] of FACS cytograms. Cells that are FITC (+)/PI (−) [A4] are early apoptotic. Cell populations that are advanced apoptotic or necrotic are FITC (+)/PI (+) are located in quadrant [A2]. […]

[2] = system: human breast cancer cell line MD-MBA-231; experiment: Bioactivity-guided percent apoptosis, Annexin V/Propidium iodide FACS, 48-h incubation; type: cell-based; parameters: key: % of cells (Annexin V/PI FACS); conditions: Table E5; Dose 100
Protocol: Apoptosis was evaluated against human breast cancer cell line MD-MBA-231. Cells were maintained in RPMI 1640 medium (PAA Laboratories GmbH, Teddington Middlesex, UK) supplemented with 10% heat-inactivated tetracycline-free fetal calf serum (PAA Laboratories) and 2 mM L-glutamine, 100 units/ml penicillin, and 100 μg/ml streptomycin (Gibco, Grand Island, N.Y.). Cells were propagated and cultured at 37° C. in a 100% relative humidified atmosphere consisting of 5% C02 and 95% air. Cells were trypsinized with 0.05% Trypsin-0.2% EDTA (w/v) solution.
The bioactivity-guided isolation of the compounds was performed using percent apoptosis in human breast cancer cells (cell line MD-MBA-231) as the reporter. Cells were seeded in a standard 24-well microtiter plate at a density of 1.5×10^4 cells/well in […] tissue culture medium. After a 24-h incubation period cells were treated with individual fractions from the wood of Guaiacum officinale L. Test compounds were mixed in solution using DMSO as vehicle (10 μg extract/1 ml DMSO), at 30 μl. Following a 48-h incubation period, the induction of apoptosis in cell cultures was analyzed by fluorescence-activated cell sorter (FACS Caliber Becton Dickinson, San Jose, Calif.), double staining with Annexin V/Propidium iodide.
Three fractions were chosen for further evaluation based on their apoptotic activity, yields, and simplicity of their HPLC profiles. Fraction 5 was obtained by combining F5 and F6, and fraction 13 by combining fractions 13 and 14. Fraction 8 was not combined with any other. Combinations were based on TLC profiles, (FIG. 17). The percent apoptosis was calculated by using Annexin V/FITC staining and flow cytometry (Table E4).

Structure (SMILES)	% events in sub G0 (apoptotic events) (cell line MD-MBA-231)	effect on cell population in G2/M (cell line MD-MBA-231)	effect on cell populations in S-phase, significance (cell line MD-MBA-231)	singlet count (cell line MD-MBA-231)	increase in % events at G2/M over isonectandrin B and nectandrin B (cell line MD-MBA-231; highest treatment)	increase in % events at G2/M over untreated cells (cell line MD-MBA-231; highest treatment) [%]	early stage apoptosis, FITC (+)/PI (−) staining, significance [1]	Apoptosis [2]	Necrosis [2]	% of cells in S-phase (cell line MD-MBA-231; 30 ppm) [%]	early apoptosis surpassing that induced by camptothecin ([1]; 30 ppm) [%]	late stage apoptotic cell death count, FITC (+)/PI (+) ([1]; highest concentration) [%]	% of cells in S-phase (cell line MD-MBA-231; 1.2 ppm) [%]	% of cells in S-phase (cell line MD-MBA-231; 6.0 ppm) [%]	early apoptosis surpassing that induced by camptothecin ([1]; 6.0 ppm) [%]
COc1cc([C@H]2O[C@H](c3ccc(O)c(OC)c3)[C@@H](C)[C@H]2C)ccc1O [I-e]	without showing increased number of events in sub G0	significant blockage in G2/M at 30 ppm	significance at the highest concentration	approximately equal level of cell death as shown with untreated cells	approximately 3 fold	8	did not show any significant increases								
C=C1[C@@H](c2ccc(O)c(OC)c2)O[C@@H](c2ccc(O)c(OC)c2)[C@@]12CCC1=C(C2)[C@@H](c2ccc(O)c(OC)c2)O[C@H]1c1ccc(O)c(OC)c1 [I-a]	strong apoptotic activity at 6.0 ppm, but then declined somewhat at 30 ppm		progressive decrease in % S-phase events with increasing drug concentration					90.12	0.82	< 3					
COc1cc([C@H]2O[C@@H](c3ccc(O)c(OC)c3)[C@H](C)[C@@H]2C)ccc1O [I-c]	increased and significantly induced apoptotic activity at 30.0 ppm	significant reduction of cells at 6 and 30 ppm	inhibited cells from entering this stage as well in a concentration-dependent manner	reached minimal levels at 30 ppm			significantly increased	92.9	1.81		10				
C=C1[C@@H](c2ccc(O)c(OC)c2)O[C@@H](c2ccc(O)c(OC)c2)[C@]12CCC1=C(C2)[C@@H](c2ccc(O)c(OC)c2)O[C@H]1c1ccc(O)c(OC)c1 [I-b]	significance at 6 and 30 ppm		significant decrease in cell populations at the two highest doses					81.37	0.41	4.5		63			
COc1cc(C[C@@H](C)[C@@H](C)Cc2ccc(O)c(OC)c2)ccc1O [I-f]	no significant increases		did so at 30 ppm							6					
COc1cc([C@H]2O[C@@H](c3ccc(O)c(OC)c3)[C@@H](C)[C@H]2C)ccc1O [I-d]	increased and significantly induced apoptotic activity at 30.0 ppm	lowest accumulation at 30 ppm	significantly inhibited cell populations in S-phase at all doses	significance decreases at all doses			significantly increased	91.14	0.35	0	24		8.2	4.7	10
